Test results published in US20240150300A1, “S-CONFIGURATION-CONTAINING AMINO BENZAMIDE PYRIDAZINONE COMPOUND, PREPARATION METHOD THEREFOR, AND PHARMACEUTICAL COMPOSITION AND APPLICATION THEREOF” (SHANGHAI INSTITUTE OF MATERIA MEDICA, CHINESE ACADEMY OF …, priority 2021, published 2024).

Experiments:
WILL-2 = test: Antiproliferative activity, CCK-8, WILL-2; type: cell-based; settings: WILL-2, Diffuse large B-cell lymphoma; read-out: Cytotoxicity (IC50 μM)
Description: (§1) The tumor cells used were purchased from commercial cell banks (HCT116 purchased from ATCC, SKM 1 purchased from JCRB). The growth inhibition of cells was detected using the CCK-8 method. The specific steps were as follows. Cells in the logarithmic growth phase were seeded into a 96 well culture plate at an appropriate density, with 90 μL/well. After overnight cultivation, different concentrations of drugs were added for treatment for 72 h, with each concentration in triplicate, and corresponding concentration of vehicle control and cell-free blank wells were also set. After the treatment, 10 μL of CCK-8 was added to each well and the plate was incubated in an incubator for 2-4 hours, and the optical density (OD value) at a wavelength of 450 nm was measured using a SpectraMax 190 microplate reader. […] The experiment was repeated twice, and the mean value and SD were calculated.
(§2) The testing method for antiproliferative activity was the same as that mentioned in Pharmacological Experiment Example 2, and the results are shown in Table 4 and FIGS. 2-3.

SKM-1 cells = test: Antiproliferative activity, CCK-8, SKM-1; type: cell-based, human; settings: 72 h
Description: as §1
With reference to HCT-116 cell proliferation inhibition test method, the inhibitory activity of the compounds on the proliferation of human myelodysplastic syndrome cell SKM-1 was tested.

VMM5A = test: Antiproliferative activity, CCK-8, VMM5A; type: cell-based; settings: Melanoma, read-out: Cytotoxicity (IC50 μM)
Description: as §1, §2

HCT-116 cells = test: Antiproliferative activity, CCK-8, HCT-116; type: cell-based, human; settings: 72 h
Description: as §1

KG-1 = test: Antiproliferative activity, CCK-8, KG-1; type: cell-based; settings: KG-1, Acute myeloid leukemia; read-out: Cytotoxicity (IC50 μM)
Description: as §1, §2

WILL-1 = test: Antiproliferative activity, CCK-8, WILL-1; type: cell-based; settings: WILL-1, Diffuse large B-cell lymphoma; read-out: Cytotoxicity (IC50 μM)
Description: as §1, §2

SU-DHL-6 = test: Antiproliferative activity, CCK-8, SU-DHL-6; type: cell-based; settings: SU-DHL-6, Diffuse large B-cell lymphoma; read-out: Cytotoxicity (IC50 μM)
Description: as §1, §2

HDAC2 = HDAC2 (Homo sapiens (Human), UniProt Q92769); test: HDAC subtype inhibitory activity (HTRF), HDAC2; type: biochemical
Sequence of HDAC2 (Q92769 whole entry): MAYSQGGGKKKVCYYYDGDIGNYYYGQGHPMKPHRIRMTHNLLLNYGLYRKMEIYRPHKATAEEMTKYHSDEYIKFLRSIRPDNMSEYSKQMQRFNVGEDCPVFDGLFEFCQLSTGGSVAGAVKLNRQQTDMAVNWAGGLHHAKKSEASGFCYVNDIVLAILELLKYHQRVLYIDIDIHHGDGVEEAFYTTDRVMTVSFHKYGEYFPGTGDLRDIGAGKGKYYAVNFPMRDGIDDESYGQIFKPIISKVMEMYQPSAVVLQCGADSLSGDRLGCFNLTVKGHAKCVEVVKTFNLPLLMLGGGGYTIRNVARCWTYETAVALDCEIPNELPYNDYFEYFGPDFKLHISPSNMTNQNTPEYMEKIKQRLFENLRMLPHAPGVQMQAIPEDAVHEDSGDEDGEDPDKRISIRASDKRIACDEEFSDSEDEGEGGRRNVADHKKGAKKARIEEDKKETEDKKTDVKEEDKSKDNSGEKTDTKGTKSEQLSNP
Description: (§3) Human recombinant HDAC family proteins with His and GST tags were expressed using insect baculovirus expression system, and a biologically active HDAC family recombinant protein was obtained through Ni affinity column protein purification. HTRF detection method was used with H3(1-21) K9Ac biotin as the substrate. […] Briefly, 20 μl of the activity testing system included the HDAC substrate (0.2 μM. 4 μl), the Human Recombinant Protein HDAC (2-5 ng)/μl.

EoL-1 = test: Antiproliferative activity, CCK-8, EoL-1; type: cell-based; settings: EoL-1, Chronic eosinophilic leukemia; read-out: Cytotoxicity (IC50 μM)
Description: as §1, §2

MO-91 = test: Antiproliferative activity, CCK-8, MO-91; type: cell-based; settings: MO-91, Acute myeloid leukemia; read-out: Cytotoxicity (IC50 μM)
Description: as §1, §2

PC-9 = test: Antiproliferative activity, CCK-8, PC-9; type: cell-based; settings: PC-9, Lung cancer; read-out: Cytotoxicity (IC50 μM)
Description: as §1, §2

REC-1 = test: Antiproliferative activity, CCK-8, REC-1; type: cell-based; settings: REC-1, Human mantle cell lymphoma; read-out: Cytotoxicity (IC50 μM)
Description: as §1, §2

H9 = test: Antiproliferative activity, CCK-8, H9; type: cell-based; settings: H9, Human T lymphocyte line; read-out: Cytotoxicity (IC50 μM)
Description: as §1, §2

SNU-5 = test: Antiproliferative activity, CCK-8, SNU-5; type: cell-based; settings: SNU-5, Gastric cancer; read-out: Cytotoxicity (IC50 μM)
Description: as §1, §2

KMS-11 = test: Antiproliferative activity, CCK-8, KMS-11; type: cell-based; settings: KMS-11, Human multiple myeloma; read-out: Cytotoxicity (IC50 μM)
Description: as §1, §2

RL = test: Antiproliferative activity, CCK-8, RL; type: cell-based; settings: Diffuse large B-cell lymphoma, read-out: Cytotoxicity (IC50 μM)
Description: as §1, §2

SU-DHL-8 = test: Antiproliferative activity, CCK-8, SU-DHL-8; type: cell-based; settings: SU-DHL-8, Diffuse large B-cell lymphoma; read-out: Cytotoxicity (IC50 μM)
Description: as §1, §2

HDAC6 = HDAC6 (Homo sapiens (Human), UniProt Q9UBN7); test: In vitro histone deacetylase activity assay (HTRF), HDAC6; type: biochemical; settings: H3(1-21) K9Ac biotin substrate
Sequence of HDAC6 (Q9UBN7 whole entry): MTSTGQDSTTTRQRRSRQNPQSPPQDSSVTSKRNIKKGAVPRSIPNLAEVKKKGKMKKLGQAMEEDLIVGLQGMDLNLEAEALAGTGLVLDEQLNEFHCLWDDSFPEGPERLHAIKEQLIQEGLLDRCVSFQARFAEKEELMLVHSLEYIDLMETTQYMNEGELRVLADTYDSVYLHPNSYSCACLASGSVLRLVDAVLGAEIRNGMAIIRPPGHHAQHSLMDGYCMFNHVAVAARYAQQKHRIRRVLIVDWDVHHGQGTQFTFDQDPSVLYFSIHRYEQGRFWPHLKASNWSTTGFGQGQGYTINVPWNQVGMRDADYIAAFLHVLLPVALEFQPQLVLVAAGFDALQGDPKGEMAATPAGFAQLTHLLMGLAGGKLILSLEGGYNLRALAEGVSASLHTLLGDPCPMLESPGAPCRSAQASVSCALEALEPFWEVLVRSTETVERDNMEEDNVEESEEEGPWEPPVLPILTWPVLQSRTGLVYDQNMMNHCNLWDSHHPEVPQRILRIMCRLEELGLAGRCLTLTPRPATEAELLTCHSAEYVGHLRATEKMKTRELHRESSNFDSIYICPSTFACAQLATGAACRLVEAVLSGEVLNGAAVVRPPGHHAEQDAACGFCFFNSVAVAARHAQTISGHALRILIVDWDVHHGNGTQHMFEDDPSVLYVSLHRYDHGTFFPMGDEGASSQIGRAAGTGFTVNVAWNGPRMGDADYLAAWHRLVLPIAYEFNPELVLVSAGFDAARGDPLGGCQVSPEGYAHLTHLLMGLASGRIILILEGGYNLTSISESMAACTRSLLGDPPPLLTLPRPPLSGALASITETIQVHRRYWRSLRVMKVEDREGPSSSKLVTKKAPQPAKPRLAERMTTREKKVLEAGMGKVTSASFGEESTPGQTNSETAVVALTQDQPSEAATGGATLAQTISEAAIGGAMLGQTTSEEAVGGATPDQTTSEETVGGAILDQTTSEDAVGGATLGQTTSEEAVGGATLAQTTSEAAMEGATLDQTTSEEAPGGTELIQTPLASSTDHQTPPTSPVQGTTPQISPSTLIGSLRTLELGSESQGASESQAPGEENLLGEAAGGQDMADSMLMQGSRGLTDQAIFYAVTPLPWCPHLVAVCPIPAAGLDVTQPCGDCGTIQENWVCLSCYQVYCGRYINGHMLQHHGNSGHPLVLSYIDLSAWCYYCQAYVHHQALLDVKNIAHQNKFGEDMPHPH
Description: as §3

SNU-16 = test: Antiproliferative activity, CCK-8, SNU-16; type: cell-based; settings: SNU-16, gastric cancer; read-out: Cytotoxicity (IC50 μM)
Description: as §1, §2

HDAC1 = HDAC1 (Homo sapiens (Human), UniProt Q13547); test: In vitro histone deacetylase activity assay (HTRF), HDAC1; type: biochemical; settings: H3(1-21) K9Ac biotin substrate
Sequence of HDAC1 (Q13547 whole entry): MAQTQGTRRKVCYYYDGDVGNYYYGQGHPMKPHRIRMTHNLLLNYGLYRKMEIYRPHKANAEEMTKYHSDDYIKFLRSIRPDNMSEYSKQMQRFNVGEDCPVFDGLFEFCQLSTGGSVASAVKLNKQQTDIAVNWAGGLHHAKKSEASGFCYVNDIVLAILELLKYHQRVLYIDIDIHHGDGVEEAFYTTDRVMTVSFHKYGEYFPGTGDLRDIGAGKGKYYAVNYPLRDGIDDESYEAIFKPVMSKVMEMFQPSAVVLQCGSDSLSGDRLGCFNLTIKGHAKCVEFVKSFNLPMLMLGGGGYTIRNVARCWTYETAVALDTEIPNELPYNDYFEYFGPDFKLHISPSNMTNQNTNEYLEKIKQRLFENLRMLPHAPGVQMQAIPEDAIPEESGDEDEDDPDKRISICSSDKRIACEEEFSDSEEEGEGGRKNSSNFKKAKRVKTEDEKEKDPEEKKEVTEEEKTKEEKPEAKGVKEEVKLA
Description: as §3

SK-MEL-2 = test: Antiproliferative activity, CCK-8, SK-MEL-2; type: cell-based; settings: SK-MEL-2, Melanoma; read-out: Cytotoxicity (IC50 μM)
Description: as §1, §2

HuT78 = test: Antiproliferative activity, CCK-8, HuT78; type: cell-based; settings: HuT78, Human T-lymphocytic leukemia; read-out: Cytotoxicity (IC50 μM)
Description: as §1, §2

A2058 = test: Antiproliferative activity, CCK-8, A2058; type: cell-based; settings: A2058, Melanoma; read-out: Cytotoxicity (IC50 μM)
Description: as §1, §2

CMK = test: Antiproliferative activity, CCK-8, CMK; type: cell-based; settings: Down syndrome acute megakaryocyte leukemia, read-out: Cytotoxicity (IC50 μM)
Description: as §1, §2

OCI-AML3 = test: Antiproliferative activity, CCK-8, OCI-AML3; type: cell-based; settings: OCI-AML3, Human acute myeloid leukemia; read-out: Cytotoxicity (IC50 μM)
Description: as §1, §2

With `C[C@@H](c1ccc(C(=O)Nc2ccc(F)cc2N)cc1)n1nc(-c2ccc(CN(C)C)cc2)ccc1=O` [Compound I-1] the IC50 (WILL-2) was 0.347 ± 0.217 µM, the IC50 (SKM-1 cells) was 0.14 ± 0.008 µM and the IC50 (VMM5A) was 0.856 ± 0.018 µM. The IC50 (HCT-116 cells) was 0.22 ± 0.004 µM, the IC50 (KG-1) was 0.95 ± 0.066 µM and the IC50 (WILL-1) was 0.116 ± 0.006 µM. It also gave an IC50 (SU-DHL-6) of 0.576 ± 0.066 µM, an IC50 (HDAC2) of 0.09 ± 0.006 µM and an IC50 (EoL-1) of 0.158 µM. It also gave an IC50 (MO-91) of 0.427 ± 0.163 µM, an IC50 (PC-9) of 0.461 ± 0.034 µM and an IC50 (REC-1) of 0.381 µM. It also gave an IC50 (H9) of 0.649 ± 0.044 µM, an IC50 (SNU-5) of 0.314 ± 0.011 µM and an IC50 (KMS-11) of 0.671 ± 0.01 µM. For the same compound, the IC50 (RL) was 0.24 ± 0.019 µM, the IC50 (SU-DHL-8) was 0.443 ± 0.185 µM and the IC50 (HDAC6) was greater than 10 µM. For the same compound, the IC50 (SNU-16) was 0.675 ± 0.064 µM, the IC50 (HDAC1) was 0.0576 ± 0.00442 µM and the IC50 (SK-MEL-2) was 0.799 ± 0.042 µM. It also gave an IC50 (HuT78) of 0.769 ± 0.461 µM, an IC50 (A2058) of 0.562 ± 0.011 µM and an IC50 (CMK) of 0.131 ± 0.011 µM. The IC50 (OCI-AML3) was 0.121 ± 0.003 µM.
